We go through two compounds from patent US20230165978A1, “Composition and A Method For Diagnosing And Treating Bacterial Infection” (Hong Kong Centre for Cerebro-Cardiovascular Health …, priority 2021, published 2023).

Usually viability stands for a per cent measure of how many cells are alive, often set against a control. As usually defined, the IC50 is the concentration needed to halve the response being measured.

Read-outs that look alike come from different tables or passages of the source.

The subject of data set [1] is UMUC-3 cell lines. The data set can be described thus: Drug treatments of cancer cell clusters in 3D model with bacteria outside tissue; cell viability test (Hoechst/Calcein-AM). It is filed as cell-based. The following applies: Homo sapiens, UMUC3, 24 h; for IC50: 3D model with bacteria outside tissue, 24 hrs of incubation, read-out: IC50 of doxorubicin for cancer cells. The protocol: 70% (v/v) ethanol (EtOH; UNI-CHEM) was added to channels to sterilize the platform and remove air bubbles. 1× phosphate-buffered saline (PBS; Gibco, #10010049, USA) was used to remove residual EtOH, and the microwell layer was then coated with 50 μL of 2.5% bovine serum albumin (v/v) (BSA) (Sigma-Aldrich, #A9418-5G, Germany) to prevent cell adhesion to the channels. The capacity of each channel was 150 μL. UMUC-3 cell clusters in the microchannels could be stained in situ with Hoechst dye (Invitrogen, #H1399, USA) for 30 min to visualize cell nuclei or biofilm. Imaging and downstream analysis were carried out in situ after 1 h, 9 h, and 24 h of infection. UMUC-3 cell clusters without bacteria were used as negative controls. The bacterial suspension was centrifuged for 10,000 rpm. LB supernatant was removed and replaced with antibiotic-free MEM a (10% supplemented with FBS) at the required multiplicity of infection (MOI) rates (500:1 or 1:1). Control groups corresponding to 0 h time points were obtained before the introduction of bacteria.
Nuclear dye Hoechst (blue) and Calcein-AM (green) Invitrogen, #C3100MP, USA) were added to the channels at a final concentration of 20 μM. Clusters were imaged after 30 min incubation at 37° C. Using ImageJ for analysis. We enumerated only cancer cells within the area range of 25-250 μm^2 and circularity 0.3-1.0 to ensure that smaller bacteria were excluded from the count.
UMUC-3 cells were seeded into a PIEB device at 35×10^3 cells/channel concentration and cultured at 37° C. overnight. Then UPEC was suspended in PBS and added into each channel at the MOI of 1:1. Then the bacteria and cells were incubated at 37° C. for 1 h in the device. TBPP was added into the channel and followed by light treatment for 30 mins. The medium was replaced by fresh RPMI with DOX (Sigma-Aldrich, #D1515-10MG, 25316-40-9, China). After 24 h incubation, cells were dyed with Hoechst and Calcein AM for imaging.

The nature of data set [2]: ROS generation test with DCFH-DA under white light. The following applies: photosensitizer 10 μM, DCFH-DA 40 μM. The procedure:
Dichlorodihydrofluorescein diacetate (DCFH-DA, Sigma-Aldrich #D6665-5G, 76-54-0, China) was used as the ROS indicator. 40 μL of DCFH-DA stock solution (1 mM) was added into 2 mL of different photosensitizers suspension (10 μM) including TBPPs and chlorin e6 (Sigma-Aldrich #COM448659756-100MG, QC-6466, USA). Then white light ([…]) was used to irradiate, and the emission of DCFD-DA at 525 nm was recorded at various irradiation times.

Data set [3] relates to UPEC. The data set can be described thus: Fluorescent imaging of bacteria by TBPP. It is filed as cell-based, uropathogenic E. coli (UPEC) strain UTI89. The procedure:
A single colony of UPEC on solid culture medium was transferred to 5 mL of Luria-Bertani (LB) medium and incubated at 37° C. for overnight. After reaching the logarithmic phase, bacteria were harvested by centrifuging at 10000 g for 3 min. After removing the supernatant, bacteria were diluted in ABTGC (ABT minimal medium supplemented with […]) to 1×10^5/mL. 300 μL of bacteria solution were added to the culture dish. Then, 300 μL dye solution in saline at appropriate concentration was added into the culture dish for 1 h and directly imaged by Leica TCS SP8 MP confocal microscope (Germany).

Data set [4] relates to human bladder carcinoma cell line (UMUC-3). In words: Cancer cell staining by TBPP. In kind it is cell-based. The following applies: TBPP 1 μM. The protocol: The human bladder carcinoma cell line UMUC-3 (CRL-1749, ATCC) were cultured in modified Minimum Essential Medium Alpha (MEM a; Gibco, #12561049, USA) supplemented with 10% (v/v) fetal bovine serum (FBS; Gibco, #10270106, USA) and 1% (v/v) penicillin-streptomycin (Gibco, #15140122, USA) at 37° C. with 5% CO2 in a humidified environment. Cells were cultured in sterile T25 or T75 flasks (Jet BIOFIL, China), with growth media replaced every 48 h. Cultures were passaged at 80% confluence.
[…] of TBPP and 10 μM of Calcein-AM were added to the channels. Clusters were then imaged after 60 min incubation at 37° C. Z-stack were recorded via confocal microscope.

Data set [5] in a line: Photophysical properties (absorption and photoluminescence spectra). In kind it is physicochemical. The procedure:
All chemicals and reagents were commercially available and used as received without further purification. ^1H and ^13C NMR spectra were measured on a Bruker ARX 400 NMR spectrometer using CDCl3 and DMSO-d6 as solvents, and tetramethylsilane (TMS; 6=0 ppm) was chosen as the internal reference. High-resolution mass spectra (HRMS) were obtained on a Finnigan MAT TSQ 7000 mass spectrometer system operated in a matrix-assisted laser desorption and ionization-time-of-flight (MALDI-TOF) mode. Absorption spectra were measured on a Milton Roy Spectronic 3000 array spectrophotometer. Steady-state photoluminescence (PL) spectra were measured on a PerkinElmer spectrofluorometer LS 55.

As for `C[N+](C)(C)CCC[n+]1ccc(-c2ccc(-c3ccc(N(c4ccccc4)c4ccccc4)cc3)c3nsnc23)cc1.[Br-].[Br-]` [TBPP, 4-(7-(4-(diphenylamino)phenyl)benzo[c][1,2,5]thiadiazol-4-yl)-1-(3-(trimethylammonio)propyl)pyridin-1-ium bromide], in data set [1] (read-out: viability of cancer cells), the viability at 5 µM was around 60%. Further, the “ROS generation (change of DCFH-DA fluorescence I/I0 with irradiation time)” value in data set [2] is on record as “much greater change than commercial photosensitizer, Ce6”. Further, the “fluorescent signal of UPEC biofilm” value in data set [3] (TBPP 1 μM, biofilm compared with planktonic bacteria) is given as “much higher signal than the planktonic bacteria”. In data set [3] (TBPP 10 μM, 1 h to 24 h), the “NIR fluorescent signal on UPEC (monolayer model)” value is “targeting ability to UPEC”. Also, in data set [4], the “fluorescence in cancer cell staining” value is “negligible fluorescence”. Further, the “Stokes shift (Δv)” value in data set [5] was determined as 198 nm. In data set [5] (in DMSO, 10 μM), this compound yielded an absorption maximum of 492 nm and an emission maximum of 690 nm.
On to `COc1cccc2c1C(=O)c1c(O)c3c(c(O)c1C2=O)C[C@@](O)(C(=O)CO)C[C@@H]3O[C@H]1C[C@H](N)[C@H](O)[C@H](C)O1` [doxorubicin], for which the IC50 was 8 µM in data set [1] (doxorubicin alone) and 5 µM in data set [1] (doxorubicin combined with TBPP).
